# Experimental data reported in patent US20240226058A1, “STABILIZED CANNABINOID COMPOSITIONS AND METHODS OF PREPARATION THEREOF” (priority 2020, published 2024).
# Experiments:
# [1] = Cannabinoid stability in cold-brewed coffee with tocopherol-containing emulsions; format: physicochemical; conditions: cold-brewed coffee base (FIG. 5)
# From the text: FIG. 5 is a graph showing quantified THC content when alpha-tocopherol (Vitamin E, VE) was incorporated into our emulsion alongside THC. Alpha-tocopherol (Vitamin E, VE) was incorporated into the emulsion alongside THC.
# FIG. 6 is a graph showing cannabinoid stability testing on a cold-brewed coffee product (20× concentrated base and final product) using two different emulsions containing tocopherols (QNE=our in-house Q-naturale+VitE emulsion; NGAO=Nanogen's (a 3rd party emulsion provider) antioxidant formulation).
# [2] = THC content in infused hop water stored at room temperature; format: physicochemical; conditions: for protection of cannabinoid API against oxidative damage: infused beverage, tocopherols emulsified with cannabis oil, ascorbic acid about 0.5-1 mM in aqueous base
# [3] = Heat-accelerated (~37° C.) THC stability with aqueous-phase vitamin C and/or EDTA; format: physicochemical; conditions: for THC loss compared to control: vitamin C or EDTA individually, actual hop water base (FIG. 9)
# [4] = THC loss in RO water at pH 3.6 vs. neutral pH; format: physicochemical; conditions: 20 mg THC/355 mL, citric acid to pH 3.6 (FIG. 4)
# Experimental: FIG. 4 is a graph showing an experiment ruling out pH as a driving factor behind THC loss. Dosed RO water to 20 mg THC/355 mL and used citric acid to pH down to 3.6 (which is the pH of the Infused hop water products) vs. neutral pH (had to bring H2O pH up a bit using sodium carbonate). No difference was observed.
# [5] = In-house comparison of oxidation rates of emulsified cannabinoids
# [6] = Color and flavor stability of infused hop water at 37° C. incubation; format: physicochemical
molecule,measurement,setting,value
"Cc1c(C)c2c(c(C)c1O)CC[C@@](C)(CCC[C@H](C)CCC[C@H](C)CCCC(C)C)O2 [Alpha-tocopherol, alpha-tocopherol]","THC content, emulsion formulated with vs without Vitamin E",[1],no appreciable difference
"CCCCCc1cc(O)c2c(c1)OC(C)(C)c1ccc(C)cc1-2 [CBN, cannabinol]",Maximal CBN levels observed,[2]; room temperature infused hop water samples (FIG. 2),about 20 % of the original THC content
"O=C(O)CN(CCN(CC(=O)O)CC(=O)O)CC(=O)O [EDTA, ethylenediaminetetraacetic acid]",THC loss compared to control,[3],"able to mitigate THC loss compared to control, but did not fully prevent it"
"CCCCCc1cc(O)c2c(c1)OC(C)(C)[C@@H]1CCC(C)=C[C@@H]21 [THC, Δ^9-tetrahydrocannabinol, reference compound]",rate of THC loss,"[2]; infused hop water beverages, room temperature, no antioxidants added, linear (FIG. 1)",roughly −0.35 % THC per day
same,rate of THC loss in high dissolved oxygen (DO) samples,"[3]; aerated samples, shaken with air exposure (FIG. 8)",fastest rate of THC loss
same,rate of THC loss with intentional increase in DO levels,"[3]; heat-accelerated, three emulsion formulations (FIG. 10)",faster rates of loss
same,"THC loss, pH 3.6 vs neutral pH",[4],No difference
same,rate of oxidation compared to CBD,[5],drastically faster rates of oxidation
"O=C1O[C@H]([C@@H](O)CO)C(O)=C1O [vitamin C, ascorbic acid]",protection of cannabinoid API against oxidative damage,[2],ample protection
same,THC loss compared to tocopherol-only preparations,"[2]; room temperature, after roughly five months",negligible amounts of THC loss
same,antioxidant efficacy between concentrations,"[3]; 0.5-10 mM vitamin C, infused hop water, 4 weeks heat-accelerated (~9 months at RT) (FIG. 11)",little difference
same,protection to THC,"[3]; 30 days @ ~37° C., equivalent to ~10 months at room temperature",sufficient protection
same,THC (cannabinoid) loss,"[3]; Vitamin C 176 ppm=1 mM and/or EDTA 25 ppm in aqueous phase, hop terpene-infused base (FIG. 7)",slowed rates of cannabinoid loss
same,concentration of vitamin C concluded sufficient,[3]; infused hop water products (FIG. 11),500 µM
same,THC loss compared to control,[3],"able to mitigate THC loss compared to control, but did not fully prevent it"
same,color and flavor alterations in the beverage product,"[6]; heat-accelerated, 30 days @ ~37° C.",strongly protected against unfavorable color and flavor alterations
same,formation of off-colors and flavors,"[6]; infused hop water, 3 weeks at 37° C., EDTA 25 ppm, vitamin C 176 ppm",largely prevent formation of off-colors and flavors
Tocopherols,protection of cannabinoid API against oxidative damage,[2],not found to suitably mitigate oxidative damage by itself
